# Earlier results as cited in patent US20150342872A1 (CRITITECH, INC., priority 2014, published 2015).
# Experiments:
# [1] = system: microtubule bundling and cytotoxic effects
# [2] = 3-hour infusion, 135 versus 175 mg/m2
smiles,measurement,setting,value
CC(=O)O[C@H]1C(=O)[C@@]2(C)[C@H]([C@H](OC(=O)c3ccccc3)[C@]3(O)C[C@H](OC(=O)[C@H](O)[C@@H](NC(=O)c4ccccc4)c4ccccc4)C(C)=C1C3(C)C)[C@]1(OC(C)=O)CO[C@@H]1C[C@@H]2O [paclitaxel],minimal concentration required to induce microtubule bundling and cytotoxic effects,[1],> 0.1 µmol/L
same,increase of AUC (0-∞) for a 30% increase in dose,[2],89%
